# Legend:
# [1] = test system: neonate rat cardiomyocyte cells; test: Hypoxia/ischemia in neonatal rat cardiomyocyte cultures, LDH release; assay type: cell-based; details: 30, 100 and 300 nm compound vs 1 μM TPEN; 150 min ischemia then reoxygenation
# Method: Rat hearts (1-2 days old) were sterilely removed and bathed three times in Ca^2+- and Mg^2+-free PBS to remove excess blood cells. The hearts were minced to small fragments and then agitated in a proteolytic enzyme-RDB solution prepared from a fig tree extract as described previously (Brik et al., 1990; Shneyvays et al., 2001). The RDB was diluted 1:200 in PBS at 25° C. for a few cycles of 10 min each. The supernatant suspension containing dissociated cells, to which medium containing 10% horse serum was added, was centrifuged at 500 g for 5 min. After centrifugation, the supernatant phase was discarded, and cells were resuspended in Dulbecco's modified Eagle medium supplemented with 10% heat-inactivated horse serum and 0.5% chick embryo extract. Cell suspensions were diluted to 1×10^6 cells/ml, and 300 μl was placed in 24 well plates (4 plates) collagen/gelatin-coated plastic culture dishes. Cultures were incubated in a humidified atmosphere of 5% CO2 and 95% air at 37° C. […] The growth medium was replaced every 3 days. The experiments were performed in vitro on these cardiomyocyte cultures after 3 to 5 days. […]
# LDH activity was determined using LDH-L kit (Thermo Trace, Melbourne, Australia) within the cardiac cell medium (PBS). […] LDH enzymatic activity was measured in a spectrophotometer at a wavelength of 340 nm at 30° C. […]
# [2] = test system: neonate rat cardiomyocyte cells; test: Hypoxia in neonatal rat cardiomyocyte cultures, propidium iodide (PI) staining; assay type: cell-based; details: after 3.5 hours of reoxygenation
# Method: Rat hearts (1-2 days old) were sterilely removed and bathed three times in Ca^2+- and Mg^2+-free PBS to remove excess blood cells. The hearts were minced to small fragments and then agitated in a proteolytic enzyme-RDB solution prepared from a fig tree extract as described previously (Brik et al., 1990; Shneyvays et al., 2001). The RDB was diluted 1:200 in PBS at 25° C. for a few cycles of 10 min each. The supernatant suspension containing dissociated cells, to which medium containing 10% horse serum was added, was centrifuged at 500 g for 5 min. After centrifugation, the supernatant phase was discarded, and cells were resuspended in Dulbecco's modified Eagle medium supplemented with 10% heat-inactivated horse serum and 0.5% chick embryo extract. […]
# Cultured cardiomyocytes were incubated with propidium iodide (5 μg/ml) (Molecular Probes, Eugene, Oreg.) in PBS for 30 min at 37° C., and propidium iodide (PI) staining was performed by incubating the cells with PI (5 μg/ml) (Molecular Probes, Eugene, Oreg.) in PBS for 30 min at 37° C. in order to differentiate between dead and survived cells following hypoxia (PI-fluorescent stain only nucleus of damaged cardiomyocytes). Thereafter, cells were bathed with PBS twice, and the cell fluorescence was measured through excitation at 485 nm and emission at 635 nm. […]
compound,measurement,setting,value
Cc1ccc(CN(CCN(Cc2ccc(C)cn2)Cc2ccc(C)cn2)Cc2ccc(C)cn2)nc1 [Compound #6],"protective effect against hypoxic insult (LDH release) compared with TPEN, FIG. 1A",[1],significantly better protective outcome from hypoxia than TPEN
same,"protection by PI staining, 100 nM versus other concentrations of the same compound",[2]; 100 nM,improve protection vs. other #6 concentrations
same,"protection from hypoxic injury by PI nuclei staining compared with 1 μM TPEN, FIG. 1B","[2]; all concentrations 1 μM, 300 nM, 100 nM and 30 nM",better protection than 1 μM of TPEN
